{"source": "paper PMC10746543", "about": "“Design principles for cyclin K molecular glue degraders” (Nature Chemical Biology, 2023)", "key": {"[1]": {"molecular_target": "T1, CDK9–cyclin T (Homo sapiens, UniProt P50750)", "T1 construct": "purchased Thermo Fisher", "assay": "Lanthascreen kinase binding assay, CDK9", "conditions": "for Lanthascreen TR-FRET signal (raw ratio), sheet CDK9: first titration set (r1), duplicates", "method": "(§1) Lanthascreen experiments were performed using commercially available reagents (Thermo Fisher) and according to the manufacturer’s instructions."}, "[2]": {"molecular_target": "CDK12–cyclin K (Homo sapiens, UniProt Q9NYV4)", "sequence (Q9NYV4 713-1052)": "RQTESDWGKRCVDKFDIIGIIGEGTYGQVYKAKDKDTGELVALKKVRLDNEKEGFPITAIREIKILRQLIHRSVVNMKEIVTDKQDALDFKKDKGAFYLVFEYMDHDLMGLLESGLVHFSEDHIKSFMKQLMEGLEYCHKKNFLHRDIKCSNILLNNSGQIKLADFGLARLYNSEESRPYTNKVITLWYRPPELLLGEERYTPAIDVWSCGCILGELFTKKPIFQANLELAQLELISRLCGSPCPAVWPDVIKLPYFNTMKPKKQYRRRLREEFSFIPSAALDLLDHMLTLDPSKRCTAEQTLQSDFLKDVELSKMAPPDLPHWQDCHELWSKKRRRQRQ", "sequence (O75909 1-267 partner limits assumed)": "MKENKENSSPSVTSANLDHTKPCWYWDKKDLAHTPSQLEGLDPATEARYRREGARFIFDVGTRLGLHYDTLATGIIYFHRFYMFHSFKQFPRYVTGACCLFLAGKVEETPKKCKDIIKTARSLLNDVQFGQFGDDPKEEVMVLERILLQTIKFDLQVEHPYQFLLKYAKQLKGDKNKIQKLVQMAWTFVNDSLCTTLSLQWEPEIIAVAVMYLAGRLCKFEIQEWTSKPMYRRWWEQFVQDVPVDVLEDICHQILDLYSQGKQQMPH", "assay": "Lanthascreen kinase binding assay, CDK12", "conditions": "for Lanthascreen raw signal, sheet CDK12: series r1, duplicates", "method": "as §1"}, "[3]": {"molecular_target": "T2, CDK12–cyclin K and DDB1 (Homo sapiens, UniProt Q16531+Q9NYV4, K965R)", "T2 construct": "His6–CDK12 (a.a. 713–1,052); full-length or beta-propeller B domain deletion (ΔBPB: a.a. 396–705 deleted) constructs of His6–DDB1ΔBPB, StrepII–Avi–DDB1, or His6–Spy–DDB1; made in house; host or cells: Trichoplusia ni High Five insect cells (baculovirus)", "T2 sequence (Q9NYV4 713-1052 K965R)": "as the sequence (Q9NYV4 713-1052) above, with K253R counted along it", "T2 sequence (O75909 1-267 partner)": "as the sequence (O75909 1-267 partner limits assumed) above", "T2 sequence (Q16531 whole entry)": "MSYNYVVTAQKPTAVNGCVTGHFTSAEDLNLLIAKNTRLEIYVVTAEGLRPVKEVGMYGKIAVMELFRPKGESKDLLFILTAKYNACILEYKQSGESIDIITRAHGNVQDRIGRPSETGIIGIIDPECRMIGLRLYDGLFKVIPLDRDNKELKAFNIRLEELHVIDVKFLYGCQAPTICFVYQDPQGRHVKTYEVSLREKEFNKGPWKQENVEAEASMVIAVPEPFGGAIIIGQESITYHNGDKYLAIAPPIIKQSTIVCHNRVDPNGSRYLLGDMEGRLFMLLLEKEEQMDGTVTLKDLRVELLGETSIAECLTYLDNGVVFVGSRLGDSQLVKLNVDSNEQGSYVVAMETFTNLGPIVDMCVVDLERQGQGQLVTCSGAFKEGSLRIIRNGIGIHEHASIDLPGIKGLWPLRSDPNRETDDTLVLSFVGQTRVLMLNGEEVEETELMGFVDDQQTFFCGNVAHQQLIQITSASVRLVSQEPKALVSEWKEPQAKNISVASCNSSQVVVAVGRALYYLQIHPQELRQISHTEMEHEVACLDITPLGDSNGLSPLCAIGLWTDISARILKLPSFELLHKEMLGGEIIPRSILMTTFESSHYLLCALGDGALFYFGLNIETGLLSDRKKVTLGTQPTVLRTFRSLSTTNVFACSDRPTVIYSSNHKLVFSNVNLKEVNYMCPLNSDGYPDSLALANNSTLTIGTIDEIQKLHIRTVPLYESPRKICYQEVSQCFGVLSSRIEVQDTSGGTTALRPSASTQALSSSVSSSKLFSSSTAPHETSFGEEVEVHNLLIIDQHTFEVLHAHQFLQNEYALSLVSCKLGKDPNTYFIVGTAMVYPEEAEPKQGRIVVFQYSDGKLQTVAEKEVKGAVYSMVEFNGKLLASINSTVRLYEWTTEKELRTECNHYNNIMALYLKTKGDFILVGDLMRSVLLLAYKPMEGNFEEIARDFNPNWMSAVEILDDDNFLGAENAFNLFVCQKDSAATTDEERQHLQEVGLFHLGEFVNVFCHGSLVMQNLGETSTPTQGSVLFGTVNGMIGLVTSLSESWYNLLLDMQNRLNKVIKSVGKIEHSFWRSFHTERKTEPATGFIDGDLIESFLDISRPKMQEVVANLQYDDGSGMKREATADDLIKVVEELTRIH", "assay": "TR-FRET ternary complex formation assay (compound titration)", "format": "binding", "description": "A 70 μs delay was employed to reduce background fluorescence. The TR-FRET signal was obtained through calculating the ratio of 520 nm to 490 nm fluorescence, and Prism 9 (GraphPad) was used for further data analysis."}, "[4]": {"molecular_target": "T3, CDK2–cyclin A (Homo sapiens, UniProt P24941)", "T3 construct": "purchased Thermo Fisher", "assay": "Lanthascreen kinase binding assay, CDK2", "conditions": "for Lanthascreen signal, sheet CDK2: raw replicates, experiment r1-r11", "method": "as §1"}, "[5]": {"test_system": "HEK293T cells", "assay": "Drug sensitivity assay (CellTiter-Glo viability) with or without MLN4924 pretreatment", "format": "cell-based, human", "conditions": "Supplementary Table 2", "method": "HEK293T–Cas9 cells were resuspended at 0.15 × 10^6 ml^−1 treated with DMSO or 100 nM MLN4924 and plated on 384-well plates. After 2 h, the indicated drugs were dispensed with a D300 digital dispenser (Tecan). After 3 days of drug exposure, cell viability was assessed using the CellTiter-Glo luminescent assay (Promega, G7572) on an CLARIOstar Plus, MARS 3.4 (BMG LabTech). Cell viabilities were calculated relative to DMSO controls."}}, "note": "Where “and” joins values, the source holds several entries; their conditions need not be identical. Equal entries are not always repeated. Where two headings read alike, the source gives them in different places."}
{"compound": "CC(C)n1cnc2c(NCc3ccc(-c4ccccn4)cc3)nc(N3CCCC[C@H]3CCO)nc21", "note": "[DS70]", "values": [{"measurement": "IC50", "setting": "[1]; Supplementary Table 2, read-out: Lanthascreen IC50 [nM] CDK9", "value": 5, "unit": "nM"}, {"measurement": "Lanthascreen TR-FRET signal (raw ratio), sheet CDK9", "setting": "[1]; compound 1.02544 nM", "value": "0.01641 and 0.01302"}, {"measurement": "Lanthascreen TR-FRET signal (raw ratio), sheet CDK9", "setting": "[1]; compound 3.15521 nM", "value": "0.01102 and 0.01312"}, {"measurement": "Lanthascreen TR-FRET signal (raw ratio), sheet CDK9", "setting": "[1]; compound 9.46563 nM", "value": "0.008363 and 0.009049"}, {"measurement": "Lanthascreen TR-FRET signal (raw ratio), sheet CDK9", "setting": "[1]; compound 31.5521 nM", "value": "0.005358 and 0.007058"}, {"measurement": "Lanthascreen TR-FRET signal (raw ratio), sheet CDK9", "setting": "[1]; compound 99.3891 nM", "value": "0.003738 and 0.004042"}, {"measurement": "Lanthascreen TR-FRET signal (raw ratio), sheet CDK9", "setting": "[1]; compound 315.521 nM", "value": "0.003575 and 0.004296"}, {"measurement": "Lanthascreen TR-FRET signal (raw ratio), sheet CDK9", "setting": "[1]; compound 10002 nM", "value": "0.002963 and 0.00293"}, {"measurement": "CDK inhibitory selectivity, result in words", "setting": "[2]; Lanthascreen across CDK2/9/12", "value": "more pronounced pan-CDK engagement than CR8"}, {"measurement": "IC50", "setting": "[2]; Supplementary Table 2, read-out: Lanthascreen IC50 [nM] CDK12", "value": 1, "unit": "nM"}, {"measurement": "Lanthascreen raw signal, sheet CDK12", "setting": "[2]; compound 1.02544 nM", "value": "0.01164 and 0.009885"}, {"measurement": "Lanthascreen raw signal, sheet CDK12", "setting": "[2]; compound 3.15521 nM", "value": "0.008674 and 0.009398"}, {"measurement": "Lanthascreen raw signal, sheet CDK12", "setting": "[2]; compound 9.46563 nM", "value": "0.007398 and 0.008542"}, {"measurement": "Lanthascreen raw signal, sheet CDK12", "setting": "[2]; compound 31.5521 nM", "value": "0.006709 and 0.008514"}, {"measurement": "Lanthascreen raw signal, sheet CDK12", "setting": "[2]; compound 99.3891 nM", "value": "0.005942 and 0.005764"}, {"measurement": "Lanthascreen raw signal, sheet CDK12", "setting": "[2]; compound 315.521 nM", "value": "0.005543 and 0.005183"}, {"measurement": "Lanthascreen raw signal, sheet CDK12", "setting": "[2]; compound 3155.21 nM", "value": "0.004896 and 0.004614"}, {"measurement": "Lanthascreen raw signal, sheet CDK12", "setting": "[2]; compound 10002 nM", "value": "0.00468 and 0.003424"}, {"measurement": "EC50", "setting": "[3]; Supplementary Table 2, read-out: TR-FRET EC50 TR-FRET", "value": 17.6, "unit": "nM"}, {"measurement": "TR-FRET signal at compound concentration 0.468 nM", "setting": "[3]; raw replicate titration data", "value": "0.3438 and 0.3184 and 0.1924 and 0.2024"}, {"measurement": "TR-FRET signal at compound concentration 0.468 nM", "setting": "[3]; raw titration data", "value": "0.3438 and 0.3184 and 0.1924 and 0.2024"}, {"measurement": "TR-FRET signal at compound concentration 2.16 nM", "setting": "[3]; raw replicate titration data", "value": "0.4192 and 0.3926 and 0.2807 and 0.3027"}, {"measurement": "TR-FRET signal at compound concentration 2.16 nM", "setting": "[3]; raw titration data", "value": "0.4192 and 0.3926 and 0.2807 and 0.3027"}, {"measurement": "TR-FRET signal at compound concentration 3.6 nM", "setting": "[3]; raw replicate titration data", "value": "0.579 and 0.5213 and 0.4737 and 0.5178"}, {"measurement": "TR-FRET signal at compound concentration 3.6 nM", "setting": "[3]; raw titration data", "value": "0.579 and 0.5213 and 0.4737 and 0.5178"}, {"measurement": "TR-FRET signal at compound concentration 7.92001 nM", "setting": "[3]; raw replicate titration data", "value": "0.9688 and 0.8489 and 0.8819 and 0.9925"}, {"measurement": "TR-FRET signal at compound concentration 7.92001 nM", "setting": "[3]; raw titration data", "value": "0.9688 and 0.8489 and 0.8819 and 0.9925"}, {"measurement": "TR-FRET signal at compound concentration 15.84 nM", "setting": "[3]; raw replicate titration data", "value": "1.662 and 1.49 and 2.462 and 1.9374"}, {"measurement": "TR-FRET signal at compound concentration 15.84 nM", "setting": "[3]; raw titration data", "value": "1.662 and 1.49 and 2.462 and 1.9374"}, {"measurement": "TR-FRET signal at compound concentration 30.96 nM", "setting": "[3]; raw replicate titration data", "value": "3.334 and 2.673 and 3.406 and 3.32"}, {"measurement": "TR-FRET signal at compound concentration 30.96 nM", "setting": "[3]; raw titration data", "value": "3.334 and 2.673 and 3.406 and 3.32"}, {"measurement": "TR-FRET signal at compound concentration 62.6401 nM", "setting": "[3]; raw replicate titration data", "value": "4.043 and 3.673 and 3.819 and 3.799"}, {"measurement": "TR-FRET signal at compound concentration 62.6401 nM", "setting": "[3]; raw titration data", "value": "4.043 and 3.673 and 3.819 and 3.799"}, {"measurement": "TR-FRET signal at compound concentration 125.28 nM", "setting": "[3]; raw replicate titration data", "value": "4.112 and 3.943 and 3.866 and 3.944"}, {"measurement": "TR-FRET signal at compound concentration 125.28 nM", "setting": "[3]; raw titration data", "value": "4.112 and 3.943 and 3.866 and 3.944"}, {"measurement": "TR-FRET signal at compound concentration 244.8 nM", "setting": "[3]; raw replicate titration data", "value": "4.2103 and 4.005 and 3.909 and 3.827"}, {"measurement": "TR-FRET signal at compound concentration 244.8 nM", "setting": "[3]; raw titration data", "value": "4.2103 and 4.005 and 3.909 and 3.827"}, {"measurement": "TR-FRET signal at compound concentration 993.601 nM", "setting": "[3]; raw replicate titration data", "value": "4.121 and 4.04 and 3.857 and 3.873"}, {"measurement": "TR-FRET signal at compound concentration 993.601 nM", "setting": "[3]; raw titration data", "value": "4.121 and 4.04 and 3.857 and 3.873"}, {"measurement": "TR-FRET signal at compound concentration 2001.6 nM", "setting": "[3]; raw replicate titration data", "value": "4.101 and 3.97 and 3.793 and 3.647"}, {"measurement": "TR-FRET signal at compound concentration 2001.6 nM", "setting": "[3]; raw titration data", "value": "4.101 and 3.97 and 3.793 and 3.647"}, {"measurement": "EC50", "setting": "[3]; in vitro complex formation, 50 nM CDK12–cyclin K, 100 nM DDB1, text and figures, read-out: TR-FRET EC50", "value": "18 ± 1", "unit": "nM"}, {"measurement": "Lanthascreen signal, sheet CDK2", "setting": "[4]; Compound 1.02544 nM", "value": "0.009698 and 0.009238"}, {"measurement": "Lanthascreen signal, sheet CDK2", "setting": "[4]; Compound 3.15521 nM", "value": "0.009437 and 0.009539"}, {"measurement": "Lanthascreen signal, sheet CDK2", "setting": "[4]; Compound 9.46563 nM", "value": "0.008356 and 0.007045"}, {"measurement": "Lanthascreen signal, sheet CDK2", "setting": "[4]; Compound 31.5521 nM", "value": "0.006783 and 0.006389"}, {"measurement": "Lanthascreen signal, sheet CDK2", "setting": "[4]; Compound 99.3891 nM", "value": "0.003942 and 0.005883"}, {"measurement": "Lanthascreen signal, sheet CDK2", "setting": "[4]; Compound 315.521 nM", "value": "0.002917 and 0.004435"}, {"measurement": "Lanthascreen signal, sheet CDK2", "setting": "[4]; Compound 3155.21 nM", "value": "0.002797 and 0.003541"}, {"measurement": "Lanthascreen signal, sheet CDK2", "setting": "[4]; Compound 10002 nM", "value": "0.002382 and 0.002785"}, {"measurement": "IC50", "setting": "[4]; Supplementary Table 2, read-out: Lanthascreen IC50 [nM] CDK2", "value": 31, "unit": "nM"}, {"measurement": "EC50", "setting": "[5]; Homo sapiens, HEK-293T, HEK293T viability, 72 h, compound alone, read-out: Cellular assays EC50", "value": 265, "unit": "nM"}, {"measurement": "Toxicity rescue", "setting": "[5]; MLN4924-mediated cytotoxicity rescue, 10 µM used where n.d.", "value": 30, "unit": "%"}]}
